Laboratory results as given in PubChem BioAssay (NCI).
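Step 1: Grow cells in 96-well plates. Step 2: Expose to compound for 48 hours at 5 concentrations. Step 3: Interpolate endpoints linearly; if unreached, use highest concentration. The concentration for 50% growth inhibition is given as GI50. At the TGI there is no net growth.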

Experiments:
Test in all cases: NCI tumour cell line growth inhibition, 48 h
[1] = test system: MDA-MB-231 breast
[2] = test system: UACC-257 melanoma
[3] = test system: RPMI-8226 leukemia
[4] = test system: A549 NSCLC
[5] = test system: COLO 205 colon
[6] = test system: SW-620 colon
[7] = test system: HCC-2998 colon
[8] = test system: OVCAR-8 ovarian
[9] = test system: ACHN renal
[10] = test system: UO-31 renal

| Structure (SMILES) | TGI [1] | TGI [2] | TGI [3] | TGI [4] | TGI [5] | TGI [6] | TGI [7] | TGI [8] | TGI [9] | TGI [10] | GI50 [1] | GI50 [2] | GI50 [4] | GI50 [8] | GI50 [9] |
| --- | --- | --- | --- | --- | --- | --- | --- | --- | --- | --- | --- | --- | --- | --- | --- |
| COc1ccc(OC/C(N=Cc2cccnc2)=N/NC(=O)c2ccncc2)cc1 | > 100 µM | > 100 µM | > 100 µM | > 100 µM | > 100 µM | > 100 µM | > 100 µM | > 100 µM | > 100 µM | – | – | – | – | – | – |
| FC1(F)SC2CCCCCCCCCCC2C1(F)F (stereo not drawn) | > 100 µM | 69.8 µM | > 100 µM | > 100 µM | 34.7 µM | – | – | > 100 µM | 73.8 µM | > 100 µM | – | – | – | – | – |
| CCOC(=O)C(/C=N/C(N)=S)=C(/O)c1ccccc1 | > 100 µM | > 100 µM | – | > 100 µM | > 100 µM | > 100 µM | > 100 µM | > 100 µM | > 100 µM | > 100 µM | – | – | – | – | – |
| O=C1CCCC1C(O)(C(F)(F)Cl)C(F)(F)Cl (stereo not drawn) | > 10 µM | > 10 µM | > 10 µM | > 10 µM | > 10 µM | > 10 µM | > 10 µM | > 10 µM | > 10 µM | – | – | – | – | – | – |
| FC(F)(F)c1ccc(N=NN2CCCC2)cc1 | > 100 µM | > 100 µM | > 100 µM | > 100 µM | > 100 µM | > 100 µM | > 100 µM | – | > 100 µM | > 100 µM | – | – | – | – | – |
| COC(=O)/C=C/[C@H]1[C@H](C)N1S(=O)(=O)c1ccc(C)cc1 (stereo partly drawn) | > 100 µM | > 100 µM | > 100 µM | > 100 µM | > 100 µM | > 100 µM | > 100 µM | > 100 µM | > 100 µM | – | – | – | – | – | – |
| COc1cc(/C=C2\CCCC3=C2N=C2SC=NN2C3c2cc(OC)c(OC)c(OC)c2)cc(OC)c1OC (stereo not drawn) | > 100 µM | 26.1 µM | – | > 100 µM | – | – | – | 29.8 µM | 3.74 µM | – | 4.95 µM | 2.64 µM | 2.95 µM | 3.23 µM | 1.88 µM |
| CN1CCN2CCN(C)CCN(CC1)CC2 | > 100 µM | > 100 µM | > 100 µM | > 100 µM | > 100 µM | > 100 µM | – | > 100 µM | > 100 µM | > 100 µM | – | – | – | – | – |
| COC(=O)c1cc(OCc2cc(OCc3ccc(Br)cc3)cc(OCc3ccc(Br)cc3)c2)cc(OCc2cc(OCc3ccc(Br)cc3)cc(OCc3ccc(Br)cc3)c2)c1 | > 100 µM | > 100 µM | > 100 µM | > 100 µM | > 100 µM | – | > 100 µM | – | > 100 µM | > 100 µM | – | – | – | – | – |
| Cc1nc2c(ccc3[nH]c4ccccc4c32)s1 | 36.4 µM | > 100 µM | – | > 100 µM | 37.8 µM | 45.4 µM | 30.2 µM | > 100 µM | > 100 µM | 74.8 µM | – | – | – | – | – |
| Nc1[nH]nc2c1Cc1c(n(Cc3ccc(Cl)cc3)c3ccccc13)C(=O)N2 | 30.6 µM | 46.4 µM | – | 46.2 µM | 23.7 µM | > 100 µM | 24.6 µM | 39.2 µM | – | 19.4 µM | – | – | – | – | – |
| COc1ccc(C2=Nn3c(C)nnc3S/C2=C\c2ccc(-c3ccc([N+](=O)[O-])cc3)o2)cc1 | > 100 µM | 54.7 µM | 15.5 µM | 66.7 µM | – | – | 19.9 µM | 15.9 µM | 25.3 µM | 29.8 µM | – | – | – | – | – |
| COc1ccc(-c2nc3ccccc3c(=O)[nH]2)cc1OC | 77 µM | > 100 µM | > 100 µM | > 100 µM | > 100 µM | > 100 µM | > 100 µM | 67.5 µM | – | > 100 µM | – | – | – | – | – |
| COC(=O)C(Cc1cc(OC)c(OC)c(OC)c1)(NC(=O)c1ccccc1)P(=O)(OC)OC (stereo not drawn) | – | > 100 µM | > 100 µM | > 100 µM | > 100 µM | > 100 µM | > 100 µM | > 100 µM | > 100 µM | > 100 µM | – | – | – | – | – |
| O=C(CN1CCOCC1)c1ccc2c(c1)oc(=O)n2CCN1CCCCC1 | > 100 µM | > 100 µM | > 100 µM | – | > 100 µM | > 100 µM | – | > 100 µM | > 100 µM | > 100 µM | – | – | – | – | – |
| O=C(O)c1cc2sc(C(=O)O)cc2s1 | – | > 100 µM | > 100 µM | > 100 µM | > 100 µM | > 100 µM | – | – | – | – | – | – | – | – | – |
| Cc1c(OCc2cccc3ccccc23)ccc2c(=O)cc(S)oc12 | > 100 µM | > 100 µM | – | > 100 µM | > 100 µM | > 100 µM | > 100 µM | > 100 µM | > 100 µM | > 100 µM | – | – | – | – | – |
| C/C(=N\Nc1nc2ccccc2[nH]1)c1ccc2ccccc2n1 | 12.5 µM | 24.9 µM | 3.15 µM | 10.2 µM | 16.2 µM | 14.6 µM | – | > 100 µM | 24.2 µM | 5.1 µM | – | – | – | – | – |
| CSc1cc(Cl)c(C)cc1S(=O)(=O)NC(=O)NNc1cnc2ccccc2n1 | > 100 µM | – | – | > 100 µM | > 100 µM | > 100 µM | > 100 µM | > 100 µM | > 100 µM | – | – | – | – | – | – |
| CSc1nc(NC2OC(CO)C(O)C(O)C2O)c(N)c(=O)[nH]1 (stereo not drawn) | – | > 100 µM | > 100 µM | > 100 µM | > 100 µM | > 100 µM | > 100 µM | > 100 µM | – | > 100 µM | – | – | – | – | – |
| NC(=O)NC(=O)c1cccc(C(=O)NC(N)=O)n1 | > 100 µM | > 100 µM | > 100 µM | > 100 µM | – | > 100 µM | > 100 µM | > 100 µM | > 100 µM | > 100 µM | – | – | – | – | – |
| C[C@H](N)C(=O)Nc1ccc(-c2nc3ccccc3s2)cc1Cl | – | 34.4 µM | – | 27.6 µM | 26.4 µM | 29.4 µM | 17.9 µM | > 100 µM | 29 µM | 22.9 µM | – | – | – | – | – |
| CCN(CC)C(=O)N1CN(c2ccccc2)C2(CCN(CCCC3(c4ccc(F)cc4)OCCO3)CC2)C1=O | – | 26.3 µM | 30.1 µM | > 100 µM | 15.2 µM | 40.4 µM | 28.7 µM | 44.4 µM | – | 35.9 µM | – | – | – | – | – |
| O=C(O)Cc1ccc(-n2nnc3c(=O)[nH][nH]c(=O)c32)cc1 | > 100 µM | > 100 µM | > 100 µM | > 100 µM | > 100 µM | – | > 100 µM | > 100 µM | > 100 µM | > 100 µM | – | – | – | – | – |
